Results reported in article PMC12221116, “Novel Quinazolinones Active against Multidrug‐Resistant Mycobacterium Tuberculosis: Synthesis, Antimicrobial Evaluation, and in Silico Exploration of Penicillin‐Binding Protein 1A as a Potential Target” (Chemmedchem, 2025).
≈ marks a conversion by molar mass, not a printed value. Where two headings read alike, the source gives them in different places.

Legend:
[1] = system: Mtb H37Rv; assay: Microplate Alamar Blue assay, MIC; assay type: cell-based, Mycobacterium tuberculosis; settings: for MIC: Mycobacterium tuberculosis, H37RV
[2] = system: Mtb H37Ra; assay: Microdilution broth resazurin assay, MIC; assay type: cell-based, Mycobacterium tuberculosis
[3] = system: M. kansasii; assay: Microplate Alamar Blue assay, MIC; assay type: cell-based, Mycobacterium kansasii; settings: for MIC: Mycobacterium kansasii, read-out: Antimycobacterial Activity MIC M. kans.
[4] = system: M. avium; assay: Microdilution broth resazurin assay, MIC; assay type: cell-based, Mycobacterium avium
[5] = system: M. smegmatis; assay: Microdilution broth resazurin assay, MIC; assay type: cell-based, Mycolicibacterium smegmatis
[6] = system: M. aurum; assay: Microdilution broth resazurin assay, MIC; assay type: cell-based, Mycolicibacterium aurum
[7] = system: HepG2; assay: cells; settings: Homo sapiens
[8] = system: MRC-5; assay: cells; settings: Homo sapiens
[9] = system: HepG2; settings: read-out: IC50 for HepG2 [24 h]; 24 h incubation, cytotoxicity
[10] = system: MRC-5; settings: read-out: IC50 for MRC-5 [24 h]; 24 h incubation, cytotoxicity
[11] = Microplate Alamar Blue assay, read-out: Antimycobacterial Activity MIC Mtb H37Rv
[12] = read-out: Antimycobacterial Activity MIC Mtb H37Rv, Table S5 matching pairs series A and B
[13] = Mycobacterium tuberculosis, H37RA, read-out: Antimycobacterial Activity MIC Mtb H37Ra
[14] = Mycobacterium avium; read-out: Antimycobacterial Activity MIC M. avium
[15] = Table S5 matching pairs series A and B
[16] = Mycolicibacterium smegmatis; read-out: Antimycobacterial Activity MIC M. smeg.
[17] = Mycolicibacterium aurum; read-out: Antimycobacterial Activity MIC M. aurum
[18] = HepG2, 24 h, read-out: IC50 for HepG2 [24 h]
[19] = HepG2, 72 h, read-out: IC50 for HepG2 [72 h]
[20] = MRC5, 24 h, read-out: IC50 for MRC-5 [24 h]
[21] = MRC5, 72 h, read-out: IC50 for MRC-5 [72 h]
[22] = Mycobacterium avium, read-out: Antimycobacterial Activity MIC M. avium
[23] = Mycolicibacterium smegmatis, read-out: Antimycobacterial Activity MIC M. smeg.
[24] = Mycolicibacterium aurum, read-out: Antimycobacterial Activity MIC M. aurum
[25] = Mycobacterium tuberculosis, H37RA; read-out: Antimycobacterial Activity MIC Mtb H37Ra

Cc1nc2cc(Cl)ccc2c(=O)n1Cc1cccc(Cl)c1 [Compound 21]
MIC [1, 11]: 25 µg/mL (≈ 78.3 µM) | MIC [1, 12]: 25 µg/mL (≈ 78.3 µM) | Antimycobacterial Activity MIC Mtb H37Ra [2]: 15.625 µg/mL | MIC [2, 13]: 15.6 µg/mL (≈ 49 µM) | MIC [3]: > 100 µg/mL | MIC [4, 14]: ≥ 250 µg/mL | Antimycobacterial Activity MIC M. avium [4, 15]: ≥ 250 µg/mL | MIC [5, 16]: ≥ 250 µg/mL | Antimycobacterial Activity MIC M. smeg. [5, 15]: ≥ 250 µg/mL | MIC [6, 17]: ≥ 250 µg/mL | Antimycobacterial Activity MIC M. aurum [6, 15]: ≥ 250 µg/mL | IC50 [7, 18]: > 50 µM | IC50 [7, 19]: > 50 µM | IC50 [8, 20]: > 50 µM | IC50 [8, 21]: > 50 µM

Cc1nc2cc(Cl)ccc2c(=O)n1Cc1ccc(Cl)c(Cl)c1 [Compound 24]
MIC [1, 11]: 50 µg/mL (≈ 141 µM) | MIC [1, 12]: > 100 µg/mL | Antimycobacterial Activity MIC Mtb H37Ra [2]: 15.625 µg/mL | MIC [2, 13]: 15.6 µg/mL (≈ 44.2 µM) | MIC [3]: 25 µg/mL (≈ 70.7 µM) | Antimycobacterial Activity MIC M. kans. [3, 15]: 25 µg/mL | Antimycobacterial Activity MIC M. avium [4]: ≥125 µg/mL | MIC [4, 22]: ≥ 125 µg/mL | Antimycobacterial Activity MIC M. smeg. [5]: ≥125 µg/mL | MIC [5, 23]: ≥ 125 µg/mL | Antimycobacterial Activity MIC M. aurum [6]: ≥125 µg/mL | MIC [6, 24]: ≥ 125 µg/mL | IC50 [7, 18]: > 50 µM | IC50 [7, 19]: > 50 µM | IC50 [8, 20]: > 50 µM | IC50 [8, 21]: > 50 µM

Cc1nc2ccccc2c(=O)n1Cc1ccc(Cl)cc1Cl [Compound 10]
Antimycobacterial Activity MIC Mtb H37Rv ([1]; Microplate Alamar Blue assay): >100 µg/mL | Antimycobacterial Activity MIC Mtb H37Ra [2]: ≥250 µg/mL | Antimycobacterial Activity MIC M. kans. [3]: >100 µg/mL | Antimycobacterial Activity MIC M. avium [4]: ≥250 µg/mL | Antimycobacterial Activity MIC M. smeg. [5]: ≥250 µg/mL | Antimycobacterial Activity MIC M. aurum [6]: ≥250 µg/mL

NNC(=O)c1ccncc1 [INH, isoniazid, reference compound]
MIC [1, 11]: 0.2 µg/mL (≈ 1.46 µM) | MIC ([2]; Mycobacterium tuberculosis, H37RA; internal quality controls (standards); read-out: MINIMUM INHIBITORY CONCENTRATION Mycobacterium tuberculosis H37Ra): 0.125 to 0.25 µg/mL (≈ 0.911 to 1.82 µM) | MIC [2, 25]: 0.25 µg/mL (≈ 1.82 µM) | MIC [3]: 25 µg/mL (≈ 182 µM) | MIC ([4]; Mycobacterium avium, DSM44156; internal quality controls (standards); read-out: MINIMUM INHIBITORY CONCENTRATION Mycobacterium avium DSM 44156): 500 to 1000 µg/mL (≈ 3650 to 7290 µM) | MIC [4, 14]: 1000 µg/mL (≈ 7290 µM) | MIC ([5]; Mycolicibacterium smegmatis, DSM43465; internal quality controls (standards); read-out: MINIMUM INHIBITORY CONCENTRATION Mycolicibacterium smegmatis DSM 43465): 15.6 to 31.2 µg/mL (≈ 114 to 228 µM) | MIC [5, 16]: 15.6 µg/mL (≈ 114 µM) | MIC ([6]; Mycolicibacterium aurum, DSM43999; internal quality controls (standards); read-out: MINIMUM INHIBITORY CONCENTRATION Mycolicibacterium aurum DSM 43999): 1.95 to 3.91 µg/mL (≈ 14.2 to 28.5 µM) | MIC [6, 17]: 3.91 µg/mL (≈ 28.5 µM)

Cc1nc2ccccc2c(=O)n1Cc1cccc(Cl)c1 [Compound 6]
Antimycobacterial Activity MIC Mtb H37Rv ([1]; Microplate Alamar Blue assay): 50 µg/mL | Antimycobacterial Activity MIC Mtb H37Rv [1, 15]: 50 µg/mL | Antimycobacterial Activity MIC Mtb H37Ra [2]: 31.25 µg/mL | Antimycobacterial Activity MIC Mtb H37Ra [2, 15]: 31.25 µg/mL | Antimycobacterial Activity MIC M. kans. [3]: 25 µg/mL | Antimycobacterial Activity MIC M. kans. [3, 15]: 25 µg/mL | Antimycobacterial Activity MIC M. avium [4]: 31.25 µg/mL | Antimycobacterial Activity MIC M. avium [4, 15]: 31.25 µg/mL | Antimycobacterial Activity MIC M. smeg. [5]: 62.5 µg/mL | Antimycobacterial Activity MIC M. smeg. [5, 15]: 62.5 µg/mL | Antimycobacterial Activity MIC M. aurum [6]: 62.5 µg/mL | Antimycobacterial Activity MIC M. aurum [6, 15]: 62.5 µg/mL | IC50 [9]: 507 ± 48 µM | IC50 [10]: 551 ± 19 µM

Cc1ccccc1Cn1c(C)nc2cc(Cl)ccc2c1=O [Compound 20]
MIC [1, 11]: > 100 µg/mL | MIC [1, 12]: > 100 µg/mL | Antimycobacterial Activity MIC Mtb H37Ra [2]: ≥250 µg/mL | MIC [2, 13]: ≥ 250 µg/mL | MIC [3]: > 100 µg/mL | MIC [4, 14]: ≥ 250 µg/mL | Antimycobacterial Activity MIC M. avium [4, 15]: ≥ 250 µg/mL | MIC [5, 16]: ≥ 250 µg/mL | Antimycobacterial Activity MIC M. smeg. [5, 15]: ≥ 250 µg/mL | MIC [6, 17]: ≥ 250 µg/mL | Antimycobacterial Activity MIC M. aurum [6, 15]: ≥ 250 µg/mL

COc1ccc(Cn2c(C)nc3cc(Cl)ccc3c2=O)c(OC)c1 [Compound 15]
MIC [1, 11]: > 100 µg/mL | MIC [1, 12]: > 100 µg/mL | Antimycobacterial Activity MIC Mtb H37Ra [2]: ≥125 µg/mL | MIC [2, 13]: ≥ 125 µg/mL | MIC [3]: > 100 µg/mL | Antimycobacterial Activity MIC M. avium [4]: ≥125 µg/mL | MIC [4, 22]: ≥ 125 µg/mL | Antimycobacterial Activity MIC M. smeg. [5]: ≥125 µg/mL | MIC [5, 23]: ≥ 125 µg/mL | Antimycobacterial Activity MIC M. aurum [6]: ≥125 µg/mL | MIC [6, 24]: ≥ 125 µg/mL

Cc1nc2ccccc2c(=O)n1Cc1ccc2ccccc2c1 [Compound 8]
MIC [1, 11]: > 100 µg/mL | MIC [1, 12]: > 100 µg/mL | Antimycobacterial Activity MIC Mtb H37Ra [2]: ≥250 µg/mL | MIC [2, 13]: ≥ 250 µg/mL | MIC [3]: 50 µg/mL (≈ 166 µM) | Antimycobacterial Activity MIC M. kans. [3, 15]: 50 µg/mL | Antimycobacterial Activity MIC M. avium [4]: 62.5 µg/mL | MIC [4, 22]: 62.5 µg/mL (≈ 208 µM) | MIC [5, 16]: ≥ 500 µg/mL | Antimycobacterial Activity MIC M. smeg. [5, 15]: ≥ 500 µg/mL | Antimycobacterial Activity MIC M. aurum [6]: 62.5 µg/mL | MIC [6, 24]: 62.5 µg/mL (≈ 208 µM)

Cc1nc2cc(Cl)ccc2c(=O)n1/N=C/c1ccc(N(C)C)cc1 [Compound 45]
MIC [1, 11]: > 25 µg/mL | MIC [2, 25]: ≥ 15.6 µg/mL | MIC [3]: > 25 µg/mL | MIC [4, 22]: ≥ 15.6 µg/mL | MIC [5, 23]: ≥ 15.6 µg/mL | MIC [6, 24]: ≥ 15.6 µg/mL

Cc1nc2cc(Cl)ccc2c(=O)n1Cc1cccc(C(=O)O)c1 [Compound 12]
MIC [1, 11]: > 100 µg/mL | MIC [2, 25]: ≥ 62.5 µg/mL | MIC [3]: > 100 µg/mL | MIC [4, 22]: ≥ 62.5 µg/mL | MIC [5, 23]: ≥ 62.5 µg/mL | MIC [6, 24]: ≥ 62.5 µg/mL

Cc1nc2cc(Cl)ccc2c(=O)n1Cc1ccccc1F [Compound 18]
MIC [1, 11]: > 100 µg/mL | MIC [2, 25]: ≥ 500 µg/mL | MIC [3]: > 100 µg/mL | MIC [4, 14]: ≥ 500 µg/mL | MIC [5, 16]: ≥ 500 µg/mL | MIC [6, 17]: ≥ 500 µg/mL
